Earlier results in patent US20110166112A1, “METHOD FOR STIMULATING PLATELET PRODUCTION” (Eisai, Inc., priority 2009, published 2011).

Test system: subjects
Details: in eight days; cited from earlier work

In the case of `CC1=NN(c2ccc(C)c(C)c2)C(=O)/C1=N\Nc1cccc(-c2cccc(C(=O)O)c2)c1O.NCCO.NCCO` [Promacta®], the “subjects who achieved a platelet response of 50,000/mm^3” value is given as 44-62%.
